This note sets out measurements from US9944927B2, “Therapeutic applications of p53 isoforms in regenerative medicine, aging and cancer” (The United States of America as Represented by the …, priority 2007, dated 2018).

What all share (assay type): cell-based, human
For one data set, the system named is caspase-3 and PARP. Kind of data set: apoptosis immunoblot of caspase-3 and PARP. Particulars: for cleaved caspase-3 or PARP (apoptosis): siRNA-transfected MRC-5 and WI-38. How it is done: Cells or tissues were lysed in RIPA buffer [10 mM Tris-HCl, pH 7.5, 150 mM NaCl, 0.1% SDS, 0.1% sodium deoxycholate, 1 mM EDTA, 1% NP-40, complete protease inhibitors (Roche, Indianapolis, Ind.), phoshatase inhibitor cocktail 1 and 2 (Sigma-Aldrich)]. SDS-PAGE, transfer to nitrocellulose or PVDF membranes (Bio-Rad, Hercules, Calif.), incubation with antibodies, and signal detection followed the standard procedures using ECL detection (Amersham Biosciences, Piscataway, N.J.) or SuperSignal West Dura Extended Duration system (Pierce Biotechnology, Rockford, Ill.). The quantitative analysis of the immunoblot data was performed using the ImageJ 1.40 g software (on the world wide web at rsb.info.nih.gov/ij/).
A polyclonal antibody specifically recognizing Δ133p53 (MAP4) was raised at Moravian Biotechnology (Brno, Czech Republic) in rabbits injected with a mixture of peptides, MFCQLAKTC (SEQ ID NO:13) and FCQLAKTCP (SEQ ID NO: 14), which were synthesized as Multiple Antigenic Peptide by Dr. G. Bloomberg (University of Bristol, Bristol, UK). The other primary antibodies used were: TLQ40^5 for p53β; CM1^5, DO-12 (Millipore, Billerica, Mass.) and DO-1 (Santa Cruz Biotechnology, Santa Cruz, Calif.) for p53; EA10 (Carbiochem, San Diego, Calif.) for p21^WAF1; SMP14 (Santa Cruz Biotechnology) for MDM2; 8G10 (Cell Signaling Technology, Danvers, Mass.) for caspase-3; M2 monoclonal antibody (Sigma-Aldrich) for FLAG tag; AC-15 (Sigma-Aldrich) for β-actin; MAB3450 (Chemicon International, Temecula, Calif.) for HP1-γ; anti-phospho-p53 (Ser15) (Cell Signaling Technology); anti-PARP (Cell Signaling Technology); FITC-conjugated anti-CD8 (BD Biosciences, Franklin Lakes, N.J.); APC-conjugated anti-CD28 (BD Biosciences); and PE-conjugated anti-CD57 (Abcam, Cambridge, Mass.). Horseradish peroxidase-conjugated goat anti-mouse or anti-rabbit antibodies (Santa Cruz Biotechnology) were used as secondary antibodies in immunoblots.

The next data set has as its system miR-34a. The data set can be described thus: real-time qRT-PCR of miR-34a expression. Particulars: for miR-34a expression at Δ133p53 knockdown-induced senescence: siRNA-transfected MRC-5 and WI-38. How it is done:
(§1) RNA samples were prepared by using Trizol (Invitrogen). Reverse transcriptase reactions were performed using TagMan miRNA reverse transcription kit (Applied Biosystems, cat. no. 4366596) and a miR-34a-specific primer. The TagMan miRNA assay kit for miR-34a (Applied Biosystems, cat. no. 4373278) was used according to the supplier's protocol. Real-time PCR reactions were performed in triplicate. RNU66 (Applied Biosystems, cat. no. 4373382) was used as a control for quantification. Based on Ct (cycle threshold) values from miR-34a and RNU66 detections, normalized miR-34a expression was calculated by using the […] method according to the supplier's protocol (protocol no. 4310255B and User Bulletin no. 4303859B found on the world wide web at appliedbiosystems.com/index.cfm).
as §1, with “TaqMan microRNA” for “TagMan miRNA”

For data set [1], the system named is MRC-5 and WI-38 fibroblasts. Kind of data set: cellular senescence: senescent growth arrest, SA-β-gal staining. Particulars: siRNA-transfected early-passage MRC-5 and WI-38, day 7.
The subject of data set [2] is MRC-5 and WI-38 fibroblasts. Kind of data set: BrdU incorporation assay. Particulars: siRNA-transfected early-passage MRC-5 and WI-38, day 7; 10 μM BrdU 24 h. How it is done:
(§2) For cell proliferation assay, 2.4×10^5 cells per well were plated into 12-well plates. These cells were collected and counted daily for a week using a hematocytometer. The experiments were performed at least twice and data at each time point were in triplicate. For examining cellular replicative lifespan, the number of cells was counted at each passage, and the number of population doublings (PDL) achieved between passages was determined by log2 (number of cells obtained/number of cells inoculated) (Michishita, E. et al., Mol. Biol. Cell 16:4623 (2005); Pereira-Smith, O. M. et al., Somatic Cell Genet. 7:411 (1981)). […] The incorporated BrdU was detected using an anti-BrdU monoclonal antibody (Amersham Biosciences) and observed with a fluorescent microscope. […]
(§3) For cell proliferation assay, 2.4×10^5 cells per well were plated into 12-well plates. These cells were collected and counted daily for a week using a hematocytometer. […] For examining cellular replicative lifespan, the number of cells was counted at each passage, and the number of population doublings (PDL) achieved between passages was determined by log2 (number of cells obtained/number of cells inoculated)^29. […] The incorporated BrdU was detected using an anti-BrdU monoclonal antibody (Amersham Biosciences) and observed with a fluorescent microscope. […]

The test system of the next data set is p21^WAF1 and MDM2. Kind of data set: immunoblot of p53 transcriptional targets p21WAF1 and MDM2. Particulars: siRNA-transfected early-passage MRC-5 and WI-38, day 7. How it is done: Cells were lysed in RIPA buffer [10 mM Tris-HCl, pH 7.5, 150 mM NaCl, 0.1% SDS, 0.1% sodium deoxycholate, 1 mM EDTA, 1% NP-40, complete protease inhibitors (Roche), phosphatase inhibitor cocktail 1 and 2 (Sigma)]. Lysates were separated by SDS-PAGE and transferred to nitrocellulose membranes (BIO-RAD) Immunoblot analysis was accomplished according to standard procedures using ECL detection (Amersham Bioscience) or SuperSignal West Dura Extended Duration system (PIERCE).
A polyclonal antibody specifically recognizing Δ133p53 (MAP4) was raised at Moravian Biotechnology (Brno, Czech Republic) in rabbits injected with a mixture of peptides MFCQLAKTC (SEQ ID NO:13) and FCQLAKTCP (SEQ ID NO:14), which were synthesized as Multiple Antigenic Peptide by G. Bloomberg (University of Bristol, Bristol, UK). […]
Cells or tissues were lysed in RIPA buffer [10 mM Tris-HCl, pH 7.5, 150 mM NaCl, 0.1% SDS, 0.1% sodium deoxycholate, 1 mM EDTA, 1% NP-40, complete protease inhibitors (Roche, Indianapolis, Ind.), phoshatase inhibitor cocktail 1 and 2 (Sigma-Aldrich)]. […] The quantitative analysis of the immunoblot data was performed using the ImageJ 1.40 g software (on the world wide web at rsb.info.nih.gov/ij/). […]

In a further data set the test system is PAI-1. Kind of data set: real-time qRT-PCR of PAI-1 mRNA. Particulars: siRNA-transfected early-passage WI-38, day 7. An excerpt:
For quantitative measurement of PAI-1 mRNA, the SYBR Green PCR Master Mix (Applied Biosystems) was used with the following primers: 5′-CTC CTG GTT CTG CCC AAG T-3′ (SEQ ID NO:15) and 5′-CAGGTTCTCTAGGGGCTTCC-3′ (SEQ ID NO:16) for PAI-1; and 5′-TTC TGG CCT GGA GGC TAT C-3′ (SEQ ID NO:17) and 5′-TCAGGAAATTTGACTTTCCATTC-3′ (SEQ ID NO:18) for β-2 microglobulin as an internal control. For IL-8 and IL-8R, the Taqman Universal PCR Master Mix (Applied Biosystems) was used with the following sets of probe and primers purchased from Applied Biosystems: IL-8 (catalog #4331182, Hs00174103_m1); IL-8R (catalog #4331182, Hs001174304_m1); and 18S endogenous control (catalog #4319413).

Another data set relates to hTERT/NHF cells. Kind of data set: Nutlin-3A-induced senescence, SA-β-gal assay. Particulars: 10 μM Nutlin-3A for 72 h.
The test system of data set [3] is MRC-5 and WI-38 fibroblasts. Kind of data set: cellular replicative lifespan (cumulative population doublings). Here is the method:
as §2, §3

Regarding `COc1cccc2c1C(=O)c1c(O)c3c(c(O)c1C2=O)C[C@@](O)(C(=O)CO)C[C@@H]3O[C@H]1C[C@H](N)[C@H](O)[C@H](C)O1` [doxorubicin, reference compound], the “apoptosis (caspase-3, PARP immunoblot)” value in the data set with caspase-3 and PARP (RKO cells, positive control) is given as “showing apoptosis”.
Turning to “5′-CUU GUG CCC UGA CUU UCA A[dT][dT]-3′ [Δ133si-2]”, the “cleaved caspase-3 or PARP (apoptosis)” value with caspase-3 and PARP is listed as “No cleaved caspase-3 or PARP was observed”. For the same compound, in the data set with miR-34a, the “miR-34a expression at Δ133p53 knockdown-induced senescence” value is “not upregulated”. Besides, in data set [1], the SA-β-gal activity result was “induction of SA-β-gal activity”. Moreover, the BrdU incorporation result in data set [2] is listed as “attenuation of BrdU incorporation”. For the same compound, in the data set with p21^WAF1 and MDM2, the “p21^WAF1 expression” value was “upregulation of p21^WAF1”. The PAI-1 expression entry in the data set with PAI-1 is “upregulation”.
Consider “5′-UGUUCACUUGUGCCCUGACUUUCAA-3′ [Δ133si-1]”, for which the “cleaved caspase-3 or PARP (apoptosis)” value in the data set with caspase-3 and PARP is given as “No cleaved caspase-3 or PARP was observed”. In the data set on miR-34a, the “miR-34a expression at Δ133p53 knockdown-induced senescence” value is “not upregulated”. In addition, in data set [1], the SA-β-gal activity result is recorded as “induction of SA-β-gal activity”. Besides, the BrdU incorporation result in data set [2] was “attenuation of BrdU incorporation”. Further, the “p21^WAF1 expression” value in the data set on p21^WAF1 and MDM2 is reported as “upregulation of p21^WAF1”. For the same compound, the PAI-1 expression result in the data set on PAI-1 is reported as “upregulation”.
For the compound “5′-AACAACCAGCUAAGACACUGCCA-3′ (antisense AACAACCAGCUAAGACACUGCCA; all 2'-O-methyl, backbone not given here) [antisense miR-34a]”, in the data set with miR-34a (late-passage MRC-5, antisense 40 nM), the “miR-34a expression after antisense transfection” value is given as “downregulation of miR-34a expression was confirmed”. Further, the “inhibition of Nutlin-3A-induced senescence” value in the data set with hTERT/NHF cells is listed as “approximately 50%”. Further, the replicative lifespan result in data set [3] (late-passage MRC-5, antisense 40 nM transfected every 4 days) was “extended the replicative lifespan”. The “extension of replicative lifespan” value in data set [3] (late-passage MRC-5 at passage 58, antisense transfected every 4 days) is reported as “approximately five”.
Turning to `COc1ccc(C2=N[C@@H](c3ccc(Cl)cc3)[C@@H](c3ccc(Cl)cc3)N2C(=O)N2CCNC(=O)C2)c(OC(C)C)c1` [Nutlin-3a, reference compound], in the data set on miR-34a (hTERT/NHF cells, p53 shRNA, or 10 μM Nutlin-3a for 36 h), the miR-34a expression entry is “induced”.
